Measured values taken from PMC7835349 (Communications Biology, 2021).
Values joined by “and” are separate entries in the source; they are usually repeats but may differ in a detail not shown here. Equal values may be shown once. Read-outs that look alike come from different tables or passages of the source.

Tests used:
[1] = Plasma pharmacokinetics after IV bolus in C.B-17 SCID mouse; format: in vivo; conditions: for concentration at 0.05 h / concentration at 0.5 h / concentration at 1 h / concentration at 2 h / concentration at 4 h / concentration at 6 h / concentration at 8 h / Concentration AZD4320 in Plasma, individual animals: 5 mg/kg, mouse IV
Protocol: Pharmacokinetic studies were carried out in the female C.B-17 SCID mouse. Either freshly prepared solutions of AZD4320 in 30% hydroxypropyl-β-cyclodextrin or drug-dendrimer conjugates in phosphate buffered saline were injected as a bolus into the tail vein at dosing volume of 5 ml/kg. Blood samples were collected at different time points post dose and analysed as below.
Blood samples were collected from the jugular vein by venepuncture into K2EDTA (as anticoagulant) tubes. Immediately following collection into the K2EDTA tube the samples were mixed gently and kept on crushed ice until centrifugation. Within 30 mins of blood collection, each sample was centrifuged (1500 g for 10 min at 4 °C) to generate plasma which was kept on wet ice at all times in polypropylene tubes. Duplicate 50 μL aliquots were transferred immediately after centrifugation into uniquely labelled polypropylene tubes (‘released’ AZD4320) containing equivalent amount (50 μL) of 0.2 M citric acid solution, inverted 10 times and then stored in a freezer set to maintain a temperature of −80 °C, until analysis.
The concentrations of ‘total’ AZD4320 were determined in plasma by overnight incubation with hydrazine followed by protein precipitation with acetonitrile and subsequent liquid/liquid extraction. Liquid chromatography with mass spectrometric detection (LC-MS/MS, details in Supplementary Table 5) was used to quantitate both ‘released’ and ‘total’ AZD4320.
Sample analyses were performed in batches containing study samples, calibration standards at 10 concentration levels, QC samples at three concentration levels in duplicate and blank samples. The analytical run acceptance criteria for calibration standards and QC samples was that at least 75% of back-calculated concentrations for calibration standards and at least 2/3 of the QC samples (at least 50% at each concentration level) should be within ±20% (±25% at LLOQ) from nominal value.

[2] = system: telemetered rats; assay: Conscious rat telemetry (QRS amplitude, blood pressure, tolerability); conditions: rat; for QRS amplitude (mV change) / QRS amplitude (mV change), Mean: AZD4320 10 mg/kg; for QRS amplitude (mV change): individual rats; for QRS amplitude (mV change), Mean: mean of rats;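 on all read-outs here: male Han Wistar rats carrying implanted telemetry transmitters, with ECG and arterial pressure recorded continuously while unrestrained in their home cage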
Text: Male Han Wistar rats were implanted with HD‐S11 transmitters (Data Sciences International, St. Paul, MN USA) under isoflurane anaesthesia, the telemetry transmitter was placed in the peritoneal cavity, the arterial blood pressure catheter was placed in the terminal abdominal aorta and the ECG electrodes were sutured, one at the dorsal surface of the xiphoid process and one at the anterior mediastinum, close to the right atrium[42]. Animals were allowed to recover for at least 2 weeks and were around 2–3 months at the time of experimentation. The animals were pair‐housed in standard rat cages with a non‐instrumented companion throughout the study. Cages were prepared with bedding material and enrichment.
Telemetry recordings took place in the home cage. […] The animals were removed from the cage temporarily for dosing and blood sampling. Animals were not subject to restraint except where dosing and blood sampling was performed. Data acquisition used Dataquest Open A.R.T.™ with HEM software version 4.2 (Notocord Inc).
For evaluation of AZD4320, n = 8 rats received single doses of 0 (vehicle: 30% Kleptose, pH9) or 10 mg/kg AZD4320, administered as a 30-min intravenous infusion. A cross-over study design was used, with an interval of 7 days between treatments.
Data for all parameters were collected continuously during the recording period. The continuous data from each animal was binned into chosen time intervals of varying length and averaged to generate a single data point for each reported nominal time. Each reported nominal timepoint was then averaged across each of the animals tested for each dose level.

With `CN(CCO)CCC(CSc1ccccc1)Nc1ccc(S(=O)(=O)NC(=O)c2ccc(N3CCC(C(O)c4ccccc4-c4ccc(Cl)cc4)CC3)cc2)cc1S(=O)(=O)C(F)(F)F` (stereo not shown) [AZD4320] the “plasma concentration relative to initial concentration” value ([1]; bolus IV, C.B-17 SCID mice, within 10 min) was “less than 20%”, the concentration at 0.05 h ([1]; female, C.B-17 SCID, mouse, plasma, intravenous, dosed at 5 mg/kg, 0.05 hr, read-out: Concentration AZD4320 in Plasma, Dose Adjusted to 10 mg/kg) was 30600 ng/mL and the concentration at 0.5 h ([1]; female, C.B-17 SCID, mouse, plasma, intravenous, dosed at 5 mg/kg, 0.5 hr, read-out: Concentration AZD4320 in Plasma, Dose Adjusted to 10 mg/kg) was 1950 ng/mL. For the same compound, the concentration at 1 h ([1]; female, C.B-17 SCID, mouse, plasma, intravenous, dosed at 5 mg/kg, 1 hr, read-out: Concentration AZD4320 in Plasma, Dose Adjusted to 10 mg/kg) was 870 ng/mL, the concentration at 2 h ([1]; female, C.B-17 SCID, mouse, plasma, intravenous, dosed at 5 mg/kg, 2 hr, read-out: Concentration AZD4320 in Plasma, Dose Adjusted to 10 mg/kg) was 150 ng/mL and the concentration at 4 h ([1]; female, C.B-17 SCID, mouse, plasma, intravenous, dosed at 5 mg/kg, 4 hr, read-out: Concentration AZD4320 in Plasma, Dose Adjusted to 10 mg/kg) was 170 ng/mL. The concentration at 6 h ([1]; female, C.B-17 SCID, mouse, plasma, intravenous, dosed at 5 mg/kg, 6 hr, read-out: Concentration AZD4320 in Plasma, Dose Adjusted to 10 mg/kg) was 120 ng/mL, the concentration at 8 h ([1]; female, C.B-17 SCID, mouse, plasma, intravenous, dosed at 5 mg/kg, 8 hr, read-out: Concentration AZD4320 in Plasma, Dose Adjusted to 10 mg/kg) was 80 ng/mL and the concentration at 0.05 h ([1]; female, C.B-17 SCID, mouse, plasma, iv, AZD4320 dosed at 5 mg/kg, 0.05 hr, read-out: Concentration AZD4320 in Plasma, Mean) was 15300 ng/mL. For the same compound, the concentration at 0.05 h ([1]; female, C.B-17 SCID, mouse, plasma, iv, AZD4320 dosed at 5 mg/kg, 0.05 hr, read-out: Concentration AZD4320 in Plasma, individual animals) was 13900 ng/mL, the concentration at 0.5 h ([1]; female, C.B-17 SCID, mouse, plasma, iv, AZD4320 dosed at 5 mg/kg, 0.5 hr, read-out: Concentration AZD4320 in Plasma, Mean) was 977 ng/mL and the concentration at 0.5 h ([1]; female, C.B-17 SCID, mouse, plasma, iv, AZD4320 dosed at 5 mg/kg, 0.5 hr, read-out: Concentration AZD4320 in Plasma, individual animals) was 1080 ng/mL. The concentration at 1 h ([1]; female, C.B-17 SCID, mouse, plasma, iv, AZD4320 dosed at 5 mg/kg, 1 hr, read-out: Concentration AZD4320 in Plasma, Mean) was 436 ng/mL, the concentration at 1 h ([1]; female, C.B-17 SCID, mouse, plasma, iv, AZD4320 dosed at 5 mg/kg, 1 hr, read-out: Concentration AZD4320 in Plasma, individual animals) was 579 ng/mL and the concentration at 2 h ([1]; female, C.B-17 SCID, mouse, plasma, iv, AZD4320 dosed at 5 mg/kg, 2 hr, read-out: Concentration AZD4320 in Plasma, Mean) was 75.3 ng/mL. For the same compound, the concentration at 2 h ([1]; female, C.B-17 SCID, mouse, plasma, iv, AZD4320 dosed at 5 mg/kg, 2 hr, read-out: Concentration AZD4320 in Plasma, individual animals) was 79.7 ng/mL, the concentration at 4 h ([1]; female, C.B-17 SCID, mouse, plasma, iv, AZD4320 dosed at 5 mg/kg, 4 hr, read-out: Concentration AZD4320 in Plasma, Mean) was 86.3 ng/mL and the concentration at 6 h ([1]; female, C.B-17 SCID, mouse, plasma, iv, AZD4320 dosed at 5 mg/kg, 6 hr, read-out: Concentration AZD4320 in Plasma, Mean) was 60.1 ng/mL. For the same compound, the concentration at 8 h ([1]; female, C.B-17 SCID, mouse, plasma, iv, AZD4320 dosed at 5 mg/kg, 8 hr, read-out: Concentration AZD4320 in Plasma, Mean) was 41.3 ng/mL, the clearance ([1]; female, C.B-17 SCID, plasma, mouse, 3-compartment model, conventional IV dose, read-out: Total Plasma Clearance CL (converted)) was 0.493 mL/min and the “Concentration AZD4320 in Plasma, individual animals” value (from here on “Concentration AZD4320 in Plasma”) ([1]; AZD4320 dosed at 5 mg/kg, 0.05 hr) was 16000 ng/mL. The “Concentration AZD4320 in Plasma” value ([1]; AZD4320 dosed at 5 mg/kg, 0.5 hr) was 1030 ng/mL and 822 ng/mL, the “Concentration AZD4320 in Plasma” value ([1]; AZD4320 dosed at 5 mg/kg, 1 hr) was 402 ng/mL and 328 ng/mL and the “Concentration AZD4320 in Plasma” value ([1]; AZD4320 dosed at 5 mg/kg, 2 hr) was 67.8 ng/mL and 78.4 ng/mL. For the same compound, the “Concentration AZD4320 in Plasma” value ([1]; AZD4320 dosed at 5 mg/kg, 4 hr) was 131 ng/mL and 54.4 ng/mL and 73.6 ng/mL, the “Concentration AZD4320 in Plasma” value ([1]; AZD4320 dosed at 5 mg/kg, 6 hr) was 92.1 ng/mL and 39.5 ng/mL and 48.8 ng/mL and the “Concentration AZD4320 in Plasma” value ([1]; AZD4320 dosed at 5 mg/kg, 8 hr) was 52.9 ng/mL and 53.4 ng/mL and 17.6 ng/mL. For the same compound, the “Compartmental Micro Constant k12” value ([1]; mouse, 3-compartment model) was 2.31 h⁻¹, the “Compartmental Micro Constant k13” value ([1]; mouse, 3-compartment model) was 3.92 h⁻¹ and the “Compartmental Micro Constant k21” value ([1]; mouse, 3-compartment model) was 0.108 h⁻¹. For the same compound, the “Compartmental Micro Constant k31” value ([1]; mouse, 3-compartment model) was 4.36 h⁻¹, the “Central Compartment Volume Vc” value ([1]; mouse, 3-compartment model, conventional IV dose) was 0.0042 L and the “decrease in QRS amplitude” value ([2]; 10 mg/kg AZD4320) was 40%. For the same compound, the “rats in which dose was tolerated” value ([2]; 10 mg/kg AZD4320, 8 rats evaluated) was 6 of the 8, the “QRS amplitude (mV change)” value ([2]; 0 h post dose) was 0 mV and the “QRS amplitude (mV change), Mean” value ([2]; 0 h post dose) was 0 mV. For the same compound, the “QRS amplitude (mV change)” value ([2]; 0.5 h post dose, 10 mg/kg) was 0.05 mV and -0.49 mV (2×) and -0.03 mV and 0.27 mV and -0.09 mV, the “QRS amplitude (mV change), Mean” value ([2]; 0.5 h post dose) was -0.13 mV and the “QRS amplitude (mV change)” value ([2]; 1 h post dose, 10 mg/kg) was -0.55 mV and -0.92 mV and 0.04 mV and -0.24 mV and -0.19 mV and -0.87 mV. The “QRS amplitude (mV change), Mean” value ([2]; 1 h post dose) was -0.46 mV, the “QRS amplitude (mV change)” value ([2]; 1.5 h post dose, 10 mg/kg) was -0.76 mV and -0.96 mV (2×) and 0.29 mV and -0.3 mV and -0.18 mV and the “QRS amplitude (mV change), Mean” value ([2]; 1.5 h post dose) was -0.48 mV. The “QRS amplitude (mV change)” value ([2]; 2 h post dose, 10 mg/kg) was -0.73 mV and -0.96 mV and -0.38 mV and -0.26 mV (2×) and -1.03 mV, the “QRS amplitude (mV change), Mean” value ([2]; 2 h post dose) was -0.60 mV and the “QRS amplitude (mV change)” value ([2]; 3 h post dose, 10 mg/kg) was -0.79 mV and -0.63 mV and -0.28 mV and -0.4 mV and -0.48 mV and -0.99 mV. For the same compound, the “QRS amplitude (mV change), Mean” value ([2]; 3 h post dose) was -0.60 mV, the “QRS amplitude (mV change)” value ([2]; 3.5 h post dose, 10 mg/kg) was -0.8 mV and -0.81 mV and -0.54 mV and -0.38 mV and -0.47 mV and -1 mV and the “QRS amplitude (mV change), Mean” value ([2]; 3.5 h post dose) was -0.67 mV. For the same compound, the “QRS amplitude (mV change)” value ([2]; 4 h post dose, 10 mg/kg) was -0.8 mV and -1.02 mV and -0.16 mV and -0.35 mV and -0.65 mV and -0.98 mV, the “QRS amplitude (mV change), Mean” value ([2]; 4 h post dose) was -0.66 mV and the “QRS amplitude (mV change)” value ([2]; 6 h post dose, 10 mg/kg) was -0.76 mV and -1 mV and -0.2 mV and -0.16 mV and -0.57 mV and -0.7 mV. For the same compound, the “QRS amplitude (mV change), Mean” value ([2]; 6 h post dose) was -0.57 mV, the “QRS amplitude (mV change)” value ([2]; 8 h post dose, 10 mg/kg) was -0.63 mV (3×) and 0.08 mV and -0.08 mV and -0.57 mV and the “QRS amplitude (mV change), Mean” value ([2]; 8 h post dose) was -0.41 mV. For the same compound, the “QRS amplitude (mV change)” value ([2]; 10 h post dose, 10 mg/kg) was -0.56 mV and -0.75 mV and 0.54 mV and 0.03 mV and -0.61 mV and -0.59 mV, the “QRS amplitude (mV change), Mean” value ([2]; 10 h post dose) was -0.32 mV and the “QRS amplitude (mV change)” value ([2]; 12 h post dose, 10 mg/kg) was -0.6 mV and -0.97 mV and -0.25 mV and 0.18 mV and -0.42 mV and -0.58 mV. The “QRS amplitude (mV change), Mean” value ([2]; 12 h post dose) was -0.44 mV, the “QRS amplitude (mV change)” value ([2]; 16 h post dose, 10 mg/kg) was -0.44 mV and -0.8 mV and 0.61 mV and -0.14 mV and -0.6 mV and -0.72 mV and the “QRS amplitude (mV change), Mean” value ([2]; 16 h post dose) was -0.35 mV. The “QRS amplitude (mV change)” value ([2]; 24 h post dose, 10 mg/kg) was -0.56 mV and -0.96 mV and -0.74 mV and -0.13 mV and -0.57 mV and -0.76 mV.
